{"source": "patent US20090047288A1", "about": "“Glucan compositions and methods of enhancing CR3 dependent neutrophil-mediated cytotoxicity” (priority 2006, published 2009)", "key": {"[1]": {"tested_on": "low-grade or slow-growing NHL", "settings": "166 patients with advanced low-grade or slow-growing NHL, cited from earlier work"}, "PI 3-kinase": {"tested_on": "PI 3-kinase", "assay": "PI 3-kinase activity after dual ligation of CR3 in human neutrophils (ELISA)", "assay_type": "cell-based", "settings": "dual ligation plus inhibitor: LY294002 50 μM, Piceatannol 25 μM; one hour", "description": "Human neutrophils were stimulated with anti-M1/70 mAb (1 μg/ml) followed with goat-anti-rat Ig (5 μg/ml) in the presence or absence of the 25 kD active moiety of β-glucan (10 μg/ml) at 37° C. […] For measurement of PI 3-kinase activity, cells were stimulated for one hour and aliquots of cell lysates adjusted for protein concentration (500 μg of protein) were incubated for two hours at 4° C. with anti-PI 3-kinase p85 antibody, and immune complexes were adsorbed onto protein A-agarose for three hours. The complexes were then washed twice with lysis buffer and three times with 10 mM Tris-HCl, pH 7.4. To ensure that PI 3-kinase levels remained equivalent at the end of the immunoprecipitation, 10% from each treatment sample were collected during the last wash in a separate tube and analyzed by SDS-PAGE and immunoblotting with Abs to the p85 PI 3-kinase subunit. […] In brief, cell lysates were prepared and PI-3K was immunoprecipitated with antibody against the p85 subunit and incubated with PI(4,5)P2 (phosphatidylinositol-4,5-diphosphate). […]\nAdditionally, human peripheral blood neutrophils were stimulated with M1/70 mAb followed by secondary Ab (with or without 25 kD β-glucan) or 25 kD β-glucan alone for one hour. […] The immunoprecipitates were analyzed on SDS-PAGE gel and blotted with anti-PI 3-kinase p85 mAb. The immunoprecipitates were also measured for PI 3-kinase activity by ELISA. […]"}}, "data": [{"compound": "rituximab: monoclonal antibody used to treat non-Hodgkin's lymphoma", "values": [{"measurement": "patients having complete remission", "setting": "[1]", "value": 6, "unit": "%"}, {"measurement": "patients whose tumors shrunk by at least one half", "setting": "[1]; those who completed treatment", "value": 48, "unit": "%"}]}, {"compound": "O=c1cc(N2CCOCC2)oc2c(-c3ccccc3)cccc12", "note": "[LY294002]", "values": [{"measurement": "PI 3-kinase activity (level of PI(3,4,5)P3)", "setting": "PI 3-kinase", "value": "9.05 ± 1.14", "unit": "µM"}]}, {"compound": "Oc1cc(O)cc(/C=C/c2ccc(O)c(O)c2)c1", "note": "[Piceatannol]", "values": [{"measurement": "PI 3-kinase activity (level of PI(3,4,5)P3)", "setting": "PI 3-kinase", "value": "17.1 ± 1.5", "unit": "µM"}]}]}
